{
  "source": "paper PMC6811361",
  "about": "“Effect of a bound anion on the structure and dynamics of halorhodopsin from Natronomonas pharaonis” (Structural Dynamics, 2019)",
  "format_in_all_cases": "binding",
  "key": {"[1]": {"biological_target": "T1, halorhodopsin from Natronomonas pharaonis (NpHR) (Natronomonas pharaonis, UniProt P15647, W229F)", "T1 construct": "gene hop; C-terminal His tag, expressed in E. coli BL21(DE3), solubilised and purified in DDM; all-trans-retinal on Lys256", "T1 sequence (P15647 whole entry W229F)": "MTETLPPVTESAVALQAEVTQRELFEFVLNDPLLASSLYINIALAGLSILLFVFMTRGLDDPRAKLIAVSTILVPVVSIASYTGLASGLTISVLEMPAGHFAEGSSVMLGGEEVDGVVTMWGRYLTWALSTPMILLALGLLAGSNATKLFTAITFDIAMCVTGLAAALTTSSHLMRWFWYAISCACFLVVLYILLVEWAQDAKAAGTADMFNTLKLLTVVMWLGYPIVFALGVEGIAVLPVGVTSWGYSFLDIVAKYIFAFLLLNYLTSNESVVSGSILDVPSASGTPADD", "test": "absorption and time-resolved UV resonance Raman spectroscopy", "conditions": "covalent, protonated Schiff base; retinal added to expression culture"}, "[2]": {"biological_target": "T2, halorhodopsin from Natronomonas pharaonis (NpHR) (Natronomonas pharaonis, UniProt P15647, W127F)", "T2 construct": "gene hop; C-terminal His tag, expressed in E. coli BL21(DE3), solubilised and purified in DDM; all-trans-retinal on Lys256", "T2 sequence (P15647 whole entry W127F)": "as the sequence (P15647 whole entry W229F) above, with W127F, F229W counted along it", "test": "absorption and time-resolved UV resonance Raman spectroscopy", "conditions": "covalent, protonated Schiff base; retinal added to expression culture"}, "[3]": {"biological_target": "T3, halorhodopsin from Natronomonas pharaonis (NpHR) (Natronomonas pharaonis, UniProt P15647)", "T3 construct": "gene hop; C-terminal His tag, expressed in E. coli BL21(DE3), solubilised and purified in DDM; all-trans-retinal on Lys256", "T3 sequence (P15647 whole entry)": "as the sequence (P15647 whole entry W229F) above, with F229W counted along it", "test": "visible resonance Raman spectroscopy (C=N stretch, deuteration shift)", "conditions": "covalent, protonated Schiff base at Lys256; pH 7.0; chloride-bound, formate-bound and anion-depleted forms"}},
  "data": [
    {"smiles": "CC1=C(/C=C/C(C)=C/C=C/C(C)=C/C=O)C(C)(C)CCC1", "note": "[all-trans-retinal]", "values": [
      {"measurement": "absorption and time-resolved UV resonance Raman spectroscopy", "setting": "[1]", "value": "sufficient amounts of the W127F and W229F NpHR mutants were obtained to measure their spectra"},
      {"measurement": "absorption and time-resolved UV resonance Raman spectroscopy", "setting": "[2]", "value": "sufficient amounts of the W127F and W229F NpHR mutants were obtained to measure their spectra"},
      {"measurement": "visible resonance Raman spectroscopy (C=N stretch, deuteration shift)", "setting": "[3]", "value": "The observed deuteration shifts indicate that the Schiff base is protonated in all three forms"}
    ]}
  ]
}
